Measurements reported in patent US11246856B2, “Methods of treating resistant cancers” (University of Maryland, Baltimore, priority 2017, dated 2022).

Experiments:
Type in all cases: cell-based
[1] = tested on: SKMELS-PLX-R, SKMEL28-PLX-R and WM3248-PLX-R cells; test: Cell proliferation, other PLX4032-resistant lines; conditions: ERK1/2 inhibitor treatment, FIG. 5I
Experimental: (§1) A375, SK-MEL-5 and SK-MEL-28 cell lines were maintained in DMEM growth medium containing 10% FCS, 2 mM L-glutamine and 1 mM sodium pyruvate. The WM3248 cells were maintained in MCDB153:L15 (4:1) growth medium containing 2% FCS, […] insulin and 1.68 mM CaCl2. To create PLX4032-resistant cells, A375, SK-MEL-5, SK-MEL-28 and WM3248 cells were treated with […] in monolayer culture in growth medium for several weeks. The surviving cells were then expanded and cultured in increasing doses of PLX4032 up to […]. The resulting PLX4032-resistant cells, designated PLX4032-resistant (e.g., A375-PLX-R) were routinely maintained in the presence of […] PLX4032.
This predicts that the BRAF inhibitors-resistant cells should remain sensitive to ERK1/2 inhibitors. To assess the role of ERK1/2 PLX4032 resistant cells were treated with SCH772984, a specific inhibitor of ERK1/2 (31), and the impact on cell proliferation was monitored.

A375-PLX-R cells = test: Cell proliferation, PLX4032-resistant A375-PLX-R cells; conditions: ERK1/2 inhibitor treatment, FIG. 5H
Experimental: as §1

[2] = tested on: YAP1, TAZ and TEAD in A375 and A375-PLX-R cells; test: YAP1/TAZ/TEAD mRNA and protein level after verteporfin, monolayer cells; conditions: proteasome inhibitor with verteporfin, FIG. 4I
Experimental: Equivalent amounts of protein were electrophoresed on denaturing and reducing 10% polyacrylamide gels and transferred to nitrocellulose membrane. The membrane was blocked by 5% nonfat dry milk for one hour and incubated with 1:1000 primary antibody in 5% nonfat dry milk. Blots were rinsed in TBS-T and then incubated with secondary antibodies (1:5000) for 2 h. Secondary antibody binding was visualized using ECL Prime (Amersham) chemiluminescence detection technology. For immunostaining, cells were harvested, suspended in growth medium, and plated in LAB-TEK II Chamber Slide System. After 24 h, the cells were fixed with 4% paraformaldehyde at room temperature for 15 min, washed three with phosphate-buffered saline, in 0.1% Triton X-100 for 15 min, washed with phosphate-buffered saline, and blocked for 1 h with phosphate-buffered saline containing 7.5% fetal calf serum. Primary antibodies were added, and the slides incubated overnight at 4° C. Cells were then washed three times with phosphate-buffered saline and incubated 1 h with the appropriate Alexa Flour fluorescence probe-conjugated secondary antibody. After additional washing, the cells were stained with DAPI for 10 min prior to imaging.
Total RNA was isolated using Illustra RNAspin mini kit (GE Healthcare), and 1 μg of RNA was used for cDNA synthesis. Gene expression was measured by real time PCR using Light Cycler 480 SYBR Green I Master Mix (04-707 516 001) from Roche Diagnostics (Indianapolis, Ind.). The signals were normalized using cyclophilin A control primers. The gene specific primers used for detection of mRNA levels were as follows: cyclophilin A (forward, 5′-[…] (SEQ ID NO: 3); reverse, 5′-[…] (SEQ ID NO: 4)), TAZ (forward, 5′-GTATCCCAGCCAATC TCG (SEQ ID NO: 5); reverse, 5′-TTCTGAGTGGGGTGGTTC (SEQ ID NO: 6)) and YAP1 (forward, 5′-[…] (SEQ ID NO: 7); reverse, 5′-[…], (SEQ ID NO: 8)) (11).
To understand the mechanism of verteporfin action, monolayer A375 and A375-PLX-R cells were treated with […] verteporfin for 24 h and the impact on YAP1/TAZ mRNA and protein level was monitored. […] The proteasome is known to regulate YAP1/TAZ level (29,30) and so whether the proteasome was responsible for the observed reductions was examined.

O=C(Nc1ccc2[nH]nc(-c3ccncc3)c2c1)[C@@H]1CCN(CC(=O)N2CCN(c3ccc(-c4ncccn4)cc3)CC2)C1 [SCH772984]
proliferation of PLX4032-resistant cells [1]: reduced | A375-PLX-R cells number (A375-PLX-R cells): time-dependent reduction

CC(=O)N[C@@H](CSC(=O)[C@]1([C@@H](O)C(C)C)NC(=O)[C@H](C)[C@@H]1O)C(=O)O [lactacystin]
reversal of verteporfin-dependent reduction in YAP1, TAZ and TEAD level [2]: not reversed
